Source: patent publication US20060069132A1, “Azolecarboxamide herbicides” (priority 2004, published 2006)

Experiments:
ducksalad = experiment: Test B flooded paddy test; type: in vivo, Heteranthera limosa; settings: 1000 g ai/ha, visual rating, scale 0 to 100 (0 no effect, 100 complete control), 13 to 15 days
How it was run: (§1)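 Postemergence plants were sprayed with formulated test chemicals at 2 to 18 cm height (1- to 4-leaf stage); paddy species were grown to the 2-leaf stage. After 13 to 15 days in a greenhouse, injury was rated visually against untreated controls on a 0–100 scale (0 = no effect, 100 = complete control).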

wheat = experiment: Test B postemergence herbicide test; type: in vivo, Triticum aestivum; design: key to Wheat plant response rating: 0 = no effect, 100 = complete control; settings: scale 0 (no effect) to 100 (complete control)
How it was run: (§2)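 Read-out: visual comparison with controls, scored 0 to 100, where 100 means complete control and 0 no effect. Formulated chemicals were applied postemergence to plants 2–18 cm tall (1- to 4-leaf), or to flooded-paddy plants at the 2-leaf stage, then held 13 to 15 days under glass.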

large crabgrass [1] = experiment: Test A pre-/postemergence herbicide test; type: in vivo, Digitaria sanguinalis; settings: for Plant response rating, Crabgrass, Large: Postemergence; for Crabgrass, Large plant response rating: Preemergence
How it was run: (§3)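 Seeds sown in sandy loam received a preemergence directed soil spray of compound in non-phytotoxic solvent with surfactant; postemergence plants (2–10 cm, one- to two-leaf stage) were sprayed to runoff at the same time. After ~10 days in greenhouse, injury was rated visually versus untreated controls (0 = no effect, 100 = complete control).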

giant foxtail [2] = experiment: Test B pre-/postemergence herbicide test; type: in vivo, Setaria faberi
How it was run: (§4)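 Herbicidal effect was judged by eye on a 0–100 scale after plants stood 13 to 15 days in the greenhouse following pre- or postemergence treatment with surfactant-containing formulations.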

redroot pigweed = experiment: Test A pre-/postemergence herbicide test; type: in vivo, Amaranthus retroflexus; settings: for Plant response rating, Pigweed: Postemergence; for Pigweed plant response rating: Preemergence
How it was run: as §3

cocklebur = experiment: Test B pre-/postemergence herbicide test; type: in vivo, Xanthium strumarium
How it was run: (§5)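 Seeds were planted and treated preemergence with compounds formulated in a non-phytotoxic solvent mixture containing surfactant, while plants at the 1- to 4-leaf stage (2 to 18 cm) received postemergence sprays. Flooded paddy plants were grown to the 2-leaf stage. After 13 to 15 days in a greenhouse, injury was visually rated 0–100 against untreated controls.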

rice [3] = experiment: Test B pre-/postemergence herbicide test; type: in vivo, Oryza sativa; settings: preemergence, 125 g ai/ha; 0 to 100 scale, 0 is no effect, 100 is complete control
How it was run: as §4

lambsquarters = experiment: Test B pre-/postemergence herbicide test; type: in vivo, Chenopodium album
How it was run: as §4

[4] = tested on: small flower umbrella sedge; experiment: Test B flooded paddy test; type: in vivo, Cyperus difformis; settings: 1000 g ai/ha, visual rating, scale 0 to 100 (0 no effect, 100 complete control), 13 to 15 days
How it was run: as §1

Surinam grass = experiment: Test B pre-/postemergence herbicide test; type: in vivo, Urochloa decumbens
How it was run: as §4

wild oat = experiment: Test B postemergence herbicide test; type: in vivo, Avena fatua; settings: scale 0 (no effect) to 100 (complete control)
How it was run: as §2

large crabgrass [5] = experiment: Test B pre-/postemergence herbicide test; type: in vivo, Digitaria sanguinalis
How it was run: as §4

velvetleaf [6] = experiment: Test A pre-/postemergence herbicide test; type: in vivo, Abutilon theophrasti; settings: for Velvetleaf plant response rating: Preemergence, visual rating, 0 to 100 scale (0 no effect, 100 complete control)
How it was run: as §3

morningglory [7] = experiment: Test B pre-/postemergence herbicide test; type: in vivo, Ipomoea coccinea
How it was run: as §5

barnyardgrass [8] = experiment: Test B flooded paddy test; type: in vivo, Echinochloa crus-galli; settings: 1000 g ai/ha, visual rating, scale 0 to 100 (0 no effect, 100 complete control), 13 to 15 days
How it was run: as §1

rice [9] = experiment: Test B flooded paddy test; type: in vivo, Oryza sativa; settings: 1000 g ai/ha, visual rating, scale 0 to 100 (0 no effect, 100 complete control), 13 to 15 days
How it was run: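 Treated at 2-leaf (paddy) or 1–4-leaf, 2–18 cm (postemergence); greenhouse 13–15 d; visual score vs control, 0 none to 100 complete control; dash = not tested.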

barnyardgrass [10] = experiment: Test A pre-/postemergence herbicide test; type: in vivo, Echinochloa crus-galli; settings: for Plant response rating, Barnyardgrass: Postemergence; for Barnyardgrass plant response rating: Preemergence
How it was run: as §3

barnyardgrass [11] = experiment: Test B pre-/postemergence herbicide test; type: in vivo, Echinochloa crus-galli
How it was run: as §5

pigweed = experiment: Test B pre-/postemergence herbicide test; type: in vivo, Amaranthus retroflexus
How it was run: as §4

morningglory [12] = experiment: Test A pre-/postemergence herbicide test; type: in vivo, Ipomoea spp.; settings: for Plant response rating, Morningglory: Postemergence; for Morningglory plant response rating: Preemergence
How it was run: as §3

blackgrass = experiment: Test B postemergence herbicide test; type: in vivo, Alopecurus myosuroides; settings: scale 0 (no effect) to 100 (complete control)
How it was run: as §1

giant foxtail [13] = experiment: Test A pre-/postemergence herbicide test; type: in vivo, Setaria faberi; settings: for Plant response rating, Foxtail, Giant: Postemergence; for Foxtail, Giant plant response rating: Preemergence
How it was run: as §3

corn = experiment: Test B pre-/postemergence herbicide test; type: in vivo, Zea mays
How it was run: as §4

velvetleaf [14] = experiment: Test B pre-/postemergence herbicide test; type: in vivo, Abutilon theophrasti
How it was run: as §4

[15] = Postemergence, 500 g ai/ha, visual rating after 13 to 15 days
[16] = postemergence, 125 g ai/ha, visual rating
[17] = 500 g ai/ha, 0 to 100 scale, 0 no effect, 100 complete control
[18] = 2000 g ai/ha, 0 to 100 scale, 0 no effect, 100 complete control
[19] = 500 g ai/ha, visual rating, 0 to 100 scale (0 no effect, 100 complete control)
[20] = Postemergence, 500 g ai/ha, visual rating after 13 to 15 days, scale 0 (no effect) to 100 (complete control)
[21] = Preemergence, 500 g ai/ha, scale 0 to 100
[22] = postemergence, 125 g ai/ha, visual rating, scale 0 (no effect) to 100 (complete control)
[23] = preemergence, 125 g ai/ha, 0 to 100 scale, 0 is no effect, 100 is complete control

CCn1nc(C(C)(C)C)cc1C(=O)Nc1cccc(C(=O)OCC(F)(F)F)c1 [Compound 83]
Ducksalad plant response rating (ducksalad): 30
Plant response rating, Wheat (wheat; [15]): 30
Wheat plant response rating (wheat; [16]): 20
Plant response rating, Crabgrass, Large (large crabgrass [1]; [17]): 30
Plant response rating, Crabgrass, Large (large crabgrass [1]; [18]): 25
Crabgrass, Large plant response rating (large crabgrass [1]; [19]): 0
Crabgrass, Large plant response rating (large crabgrass [1]; [18]): 0
Plant response rating, Foxtail, Giant (giant foxtail [2]; [20]): 10
Foxtail, Giant plant response rating (giant foxtail [2]; [21]): 0
Foxtail, Giant plant response rating (giant foxtail [2]; [22]): 0
Plant response rating, Foxtail, Giant (giant foxtail [2]; [23]): 0
Plant response rating, Pigweed (redroot pigweed; [17]): 45
Plant response rating, Pigweed (redroot pigweed; [18]): 55
Pigweed plant response rating (redroot pigweed; [19]): 0
Pigweed plant response rating (redroot pigweed; [18]): 0
Plant response rating, Cocklebur (cocklebur; [20]): 20
Cocklebur plant response rating (cocklebur; [21]): 0
Cocklebur plant response rating (cocklebur; [22]): 0
Plant response rating, Rice (rice [3]): 0
Plant response rating, Lambsquarters (lambsquarters; [20]): 60
Lambsquarters plant response rating (lambsquarters; [22]): 0
Plant response rating, Lambsquarters (lambsquarters; [23]): 0
Sedge, Umbrella plant response rating [4]: 50
Plant response rating, Surinam Grass (Surinam grass; [20]): 40
Surinam Grass plant response rating (Surinam grass; [22]): 20
Plant response rating, Surinam Grass (Surinam grass; [23]): 0
Plant response rating, Oat, Wild (wild oat; [15]): 20
Oat, Wild plant response rating (wild oat; [16]): 10
Plant response rating, Crabgrass, Large (large crabgrass [5]; [20]): 30
Crabgrass, Large plant response rating (large crabgrass [5]; [21]): 0
Crabgrass, Large plant response rating (large crabgrass [5]; [22]): 30
Plant response rating, Crabgrass, Large (large crabgrass [5]; [23]): 0
Plant response rating, Velvetleaf (velvetleaf [6]; Postemergence, 2000 g ai/ha, 0 to 100 scale, 0 no effect, 100 complete control): 20
Velvetleaf plant response rating (velvetleaf [6]; 500 g ai/ha): 0
Velvetleaf plant response rating (velvetleaf [6]; 2000 g ai/ha): 0
Plant response rating, Morningglory (morningglory [7]; [20]): 30
Morningglory plant response rating (morningglory [7]; [22]): 0
Plant response rating, Morningglory (morningglory [7]; [23]): 0
Barnyardgrass plant response rating (barnyardgrass [8]): 10
Rice plant response rating (rice [9]): 10
Plant response rating, Barnyardgrass (barnyardgrass [10]; [17]): 5
Plant response rating, Barnyardgrass (barnyardgrass [10]; [18]): 20
Barnyardgrass plant response rating (barnyardgrass [10]; [19]): 0
Barnyardgrass plant response rating (barnyardgrass [10]; [18]): 0
Plant response rating, Barnyardgrass (barnyardgrass [11]; [20]): 50
Barnyardgrass plant response rating (barnyardgrass [11]; [21]): 0
Barnyardgrass plant response rating (barnyardgrass [11]; [22]): 10
Plant response rating, Barnyardgrass (barnyardgrass [11]; [23]): 0
Plant response rating, Pigweed (pigweed; [20]): 100
Pigweed plant response rating (pigweed; [22]): 70
Plant response rating, Pigweed (pigweed; [23]): 0
Plant response rating, Morningglory (morningglory [12]; [17]): 10
Plant response rating, Morningglory (morningglory [12]; [18]): 10
Morningglory plant response rating (morningglory [12]; [19]): 30
Morningglory plant response rating (morningglory [12]; [18]): 10
Plant response rating, Blackgrass (blackgrass; [15]): 0
Blackgrass plant response rating (blackgrass; [16]): 0
Plant response rating, Foxtail, Giant (giant foxtail [13]; [17]): 20
Plant response rating, Foxtail, Giant (giant foxtail [13]; [18]): 20
Foxtail, Giant plant response rating (giant foxtail [13]; [19]): 0
Foxtail, Giant plant response rating (giant foxtail [13]; [18]): 0
Plant response rating, Corn (corn; [20]): 30
Corn plant response rating (corn; [21]): 0
Corn plant response rating (corn; [22]): 10
Plant response rating, Corn (corn; [23]): 0
Plant response rating, Velvetleaf (velvetleaf [14]; [20]): 70
Velvetleaf plant response rating (velvetleaf [14]; [22]): 50
Plant response rating, Velvetleaf (velvetleaf [14]; [23]): 0
